{"source": "paper PMC5341070", "about": "“Small molecule inhibitors block Gas6-inducible TAM activation and tumorigenicity” (Scientific Reports, 2017)", "experiment_in_all_cases": "biochemical", "key": {"[1]": {"biological_target": "T1, ADCK3 (Homo sapiens, UniProt Q8NI60)", "T1 construct": "gene COQ8A", "design": "KINOMEscan (DiscoverX) competition binding screen of 97 human kinases, percent of control at 10 uM", "experimental": "(§1) The KINOMEscan profiling of the inhibitors were performed as per directions by the manufacturer (DiscoverX) against a panel of human protein kinases."}, "[2]": {"biological_target": "AKT1 (Homo sapiens, UniProt P31749)", "design": "KINOMEscan (DiscoverX) competition binding screen of 97 human kinases, percent of control at 10 uM", "experimental": "as §1"}, "[3]": {"biological_target": "AKT2 (Homo sapiens, UniProt P31751)", "design": "KINOMEscan (DiscoverX) competition binding screen of 97 human kinases, percent of control at 10 uM", "experimental": "as §1"}, "[4]": {"biological_target": "ALK (Homo sapiens, UniProt Q9UM73)", "design": "KINOMEscan (DiscoverX) competition binding screen of 97 human kinases, percent of control at 10 uM", "experimental": "as §1"}, "[5]": {"biological_target": "BRAF(V600E) (Homo sapiens, UniProt P15056, V600E)", "sequence (P15056 whole entry V600E)": "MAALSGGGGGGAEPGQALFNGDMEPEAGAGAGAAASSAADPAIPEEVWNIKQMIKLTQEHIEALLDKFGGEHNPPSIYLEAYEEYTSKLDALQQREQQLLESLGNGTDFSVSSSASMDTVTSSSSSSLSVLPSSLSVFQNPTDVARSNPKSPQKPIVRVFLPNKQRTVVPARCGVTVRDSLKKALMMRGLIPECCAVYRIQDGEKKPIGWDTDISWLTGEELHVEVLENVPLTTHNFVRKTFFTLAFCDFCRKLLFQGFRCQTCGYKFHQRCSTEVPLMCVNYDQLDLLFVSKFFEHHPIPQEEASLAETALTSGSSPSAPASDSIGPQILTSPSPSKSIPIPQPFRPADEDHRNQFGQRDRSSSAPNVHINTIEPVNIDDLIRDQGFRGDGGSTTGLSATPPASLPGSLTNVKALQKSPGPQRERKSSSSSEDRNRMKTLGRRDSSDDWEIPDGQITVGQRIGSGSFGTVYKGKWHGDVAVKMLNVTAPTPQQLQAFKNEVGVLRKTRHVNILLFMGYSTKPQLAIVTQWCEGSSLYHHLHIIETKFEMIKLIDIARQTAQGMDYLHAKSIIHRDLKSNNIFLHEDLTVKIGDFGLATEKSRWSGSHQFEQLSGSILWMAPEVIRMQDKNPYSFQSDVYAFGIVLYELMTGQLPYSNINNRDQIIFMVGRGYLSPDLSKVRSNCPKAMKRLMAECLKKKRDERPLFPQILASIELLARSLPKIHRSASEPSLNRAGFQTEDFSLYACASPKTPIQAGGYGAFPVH", "design": "KINOMEscan (DiscoverX) competition binding screen of 97 human kinases, percent of control at 10 uM", "experimental": "as §1"}, "[6]": {"biological_target": "EPHA2 (Homo sapiens, UniProt P29317)", "design": "KINOMEscan (DiscoverX) competition binding screen of 97 human kinases, percent of control at 10 uM", "experimental": "as §1"}, "[7]": {"biological_target": "T2, ERK1 (Homo sapiens, UniProt P27361)", "T2 construct": "gene MAPK3", "design": "KINOMEscan (DiscoverX) competition binding screen of 97 human kinases, percent of control at 10 uM", "experimental": "as §1"}, "[8]": {"biological_target": "T3, FAK (Homo sapiens, UniProt Q05397)", "T3 construct": "gene PTK2", "design": "KINOMEscan (DiscoverX) competition binding screen of 97 human kinases, percent of control at 10 uM", "experimental": "as §1"}, "[9]": {"biological_target": "INSR (Homo sapiens, UniProt P06213)", "design": "KINOMEscan (DiscoverX) competition binding screen of 97 human kinases, percent of control at 10 uM", "experimental": "as §1"}, "[10]": {"biological_target": "T4, JNK2 (Homo sapiens, UniProt P45984)", "T4 construct": "gene MAPK9", "design": "KINOMEscan (DiscoverX) competition binding screen of 97 human kinases, percent of control at 10 uM", "experimental": "as §1"}, "[11]": {"biological_target": "KIT(V559D,T670I) (Homo sapiens, UniProt P10721, T670I/V559D)", "sequence (P10721 whole entry V559D/T670I)": "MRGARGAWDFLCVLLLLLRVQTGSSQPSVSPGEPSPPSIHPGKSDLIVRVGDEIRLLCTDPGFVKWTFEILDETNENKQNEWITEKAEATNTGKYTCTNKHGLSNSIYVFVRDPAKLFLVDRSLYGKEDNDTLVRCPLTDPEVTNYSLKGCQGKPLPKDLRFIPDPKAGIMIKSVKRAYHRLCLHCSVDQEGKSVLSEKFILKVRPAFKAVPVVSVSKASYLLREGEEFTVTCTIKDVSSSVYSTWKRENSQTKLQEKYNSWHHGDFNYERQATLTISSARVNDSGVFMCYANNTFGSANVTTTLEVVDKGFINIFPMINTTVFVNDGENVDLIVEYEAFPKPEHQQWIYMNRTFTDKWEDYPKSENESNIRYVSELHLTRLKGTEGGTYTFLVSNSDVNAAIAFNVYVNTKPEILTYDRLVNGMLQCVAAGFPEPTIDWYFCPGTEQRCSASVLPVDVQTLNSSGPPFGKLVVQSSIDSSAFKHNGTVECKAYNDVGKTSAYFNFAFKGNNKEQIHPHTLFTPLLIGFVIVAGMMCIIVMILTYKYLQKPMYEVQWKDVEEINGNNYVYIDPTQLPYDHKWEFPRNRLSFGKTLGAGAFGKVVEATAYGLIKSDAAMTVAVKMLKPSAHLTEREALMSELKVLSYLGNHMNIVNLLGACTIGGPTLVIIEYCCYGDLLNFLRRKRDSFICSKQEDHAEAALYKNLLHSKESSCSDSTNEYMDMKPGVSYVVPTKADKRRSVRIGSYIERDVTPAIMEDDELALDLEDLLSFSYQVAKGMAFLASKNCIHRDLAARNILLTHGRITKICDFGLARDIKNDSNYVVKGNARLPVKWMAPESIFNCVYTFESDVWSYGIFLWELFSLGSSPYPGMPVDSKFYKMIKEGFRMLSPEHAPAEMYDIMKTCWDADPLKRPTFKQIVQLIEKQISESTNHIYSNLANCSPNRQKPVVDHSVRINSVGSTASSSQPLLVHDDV", "design": "KINOMEscan (DiscoverX) competition binding screen of 97 human kinases, percent of control at 10 uM", "experimental": "as §1"}, "[12]": {"biological_target": "T5, MEK1 (Homo sapiens, UniProt Q02750)", "T5 construct": "gene MAP2K1", "design": "KINOMEscan (DiscoverX) competition binding screen of 97 human kinases, percent of control at 10 uM", "experimental": "as §1"}, "[13]": {"biological_target": "T6, MEK2 (Homo sapiens, UniProt P36507)", "T6 construct": "gene MAP2K2", "design": "KINOMEscan (DiscoverX) competition binding screen of 97 human kinases, percent of control at 10 uM", "experimental": "as §1"}, "[14]": {"biological_target": "MKNK2 (Homo sapiens, UniProt Q9HBH9)", "design": "KINOMEscan (DiscoverX) competition binding screen of 97 human kinases, percent of control at 10 uM", "experimental": "as §1"}, "[15]": {"biological_target": "PAK1 (Homo sapiens, UniProt Q13153)", "design": "KINOMEscan (DiscoverX) competition binding screen of 97 human kinases, percent of control at 10 uM", "experimental": "as §1"}, "[16]": {"biological_target": "PAK2 (Homo sapiens, UniProt Q13177)", "design": "KINOMEscan (DiscoverX) competition binding screen of 97 human kinases, percent of control at 10 uM", "experimental": "as §1"}, "[17]": {"biological_target": "PDGFRA (Homo sapiens, UniProt P16234)", "design": "KINOMEscan (DiscoverX) competition binding screen of 97 human kinases, percent of control at 10 uM", "experimental": "as §1"}, "[18]": {"biological_target": "PDPK1 (Homo sapiens, UniProt O15530)", "design": "KINOMEscan (DiscoverX) competition binding screen of 97 human kinases, percent of control at 10 uM", "experimental": "as §1"}, "[19]": {"biological_target": "T7, RSK2(Kin.Dom.1-N-terminal) (Homo sapiens, UniProt P51812)", "T7 construct": "gene RPS6KA3; Kin.Dom.1-N-terminal", "T7 sequence (P51812 whole entry)": "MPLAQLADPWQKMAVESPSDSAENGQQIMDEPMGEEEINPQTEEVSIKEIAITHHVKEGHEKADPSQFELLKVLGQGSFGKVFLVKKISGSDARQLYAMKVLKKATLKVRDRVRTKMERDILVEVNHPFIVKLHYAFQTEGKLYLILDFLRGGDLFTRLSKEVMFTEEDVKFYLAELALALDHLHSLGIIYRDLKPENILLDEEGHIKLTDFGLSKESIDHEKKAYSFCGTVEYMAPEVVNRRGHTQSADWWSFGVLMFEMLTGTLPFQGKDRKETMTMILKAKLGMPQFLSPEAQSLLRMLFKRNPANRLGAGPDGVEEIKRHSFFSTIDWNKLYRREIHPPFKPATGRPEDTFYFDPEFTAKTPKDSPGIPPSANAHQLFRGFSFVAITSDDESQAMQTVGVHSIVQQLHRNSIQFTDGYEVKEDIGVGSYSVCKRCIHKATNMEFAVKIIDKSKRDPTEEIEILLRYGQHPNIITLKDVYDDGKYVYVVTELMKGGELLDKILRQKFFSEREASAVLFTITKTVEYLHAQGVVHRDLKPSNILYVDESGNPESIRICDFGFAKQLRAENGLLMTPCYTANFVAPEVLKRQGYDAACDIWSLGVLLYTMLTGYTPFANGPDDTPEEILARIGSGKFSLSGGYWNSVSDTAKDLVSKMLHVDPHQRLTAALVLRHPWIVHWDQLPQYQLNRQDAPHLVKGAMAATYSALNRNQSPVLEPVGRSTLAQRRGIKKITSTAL", "design": "KINOMEscan (DiscoverX) competition binding screen of 97 human kinases, percent of control at 10 uM", "experimental": "as §1"}, "[20]": {"biological_target": "T8, SNARK (Homo sapiens, UniProt Q9H093)", "T8 construct": "gene NUAK2", "T8 sequence (Q9H093 whole entry)": "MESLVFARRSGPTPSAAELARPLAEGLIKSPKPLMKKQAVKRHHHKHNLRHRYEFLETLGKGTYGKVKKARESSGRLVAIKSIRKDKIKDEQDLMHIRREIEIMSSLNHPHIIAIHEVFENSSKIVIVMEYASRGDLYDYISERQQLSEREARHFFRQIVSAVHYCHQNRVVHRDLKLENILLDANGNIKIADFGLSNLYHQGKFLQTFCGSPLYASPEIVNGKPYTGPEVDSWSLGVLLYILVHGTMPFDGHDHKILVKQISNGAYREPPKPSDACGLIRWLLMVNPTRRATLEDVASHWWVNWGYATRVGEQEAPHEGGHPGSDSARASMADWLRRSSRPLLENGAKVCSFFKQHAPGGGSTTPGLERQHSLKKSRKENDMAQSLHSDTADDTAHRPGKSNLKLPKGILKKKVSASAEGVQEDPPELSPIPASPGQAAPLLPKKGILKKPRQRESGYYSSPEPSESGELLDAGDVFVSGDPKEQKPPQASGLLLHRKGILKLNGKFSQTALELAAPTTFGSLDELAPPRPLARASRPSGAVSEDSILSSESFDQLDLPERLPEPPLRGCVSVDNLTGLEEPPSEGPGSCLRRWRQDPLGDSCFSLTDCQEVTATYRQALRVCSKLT", "design": "KINOMEscan (DiscoverX) competition binding screen of 97 human kinases, percent of control at 10 uM", "experimental": "as §1"}, "[21]": {"biological_target": "SRC (Homo sapiens, UniProt P12931)", "sequence (P12931 whole entry)": "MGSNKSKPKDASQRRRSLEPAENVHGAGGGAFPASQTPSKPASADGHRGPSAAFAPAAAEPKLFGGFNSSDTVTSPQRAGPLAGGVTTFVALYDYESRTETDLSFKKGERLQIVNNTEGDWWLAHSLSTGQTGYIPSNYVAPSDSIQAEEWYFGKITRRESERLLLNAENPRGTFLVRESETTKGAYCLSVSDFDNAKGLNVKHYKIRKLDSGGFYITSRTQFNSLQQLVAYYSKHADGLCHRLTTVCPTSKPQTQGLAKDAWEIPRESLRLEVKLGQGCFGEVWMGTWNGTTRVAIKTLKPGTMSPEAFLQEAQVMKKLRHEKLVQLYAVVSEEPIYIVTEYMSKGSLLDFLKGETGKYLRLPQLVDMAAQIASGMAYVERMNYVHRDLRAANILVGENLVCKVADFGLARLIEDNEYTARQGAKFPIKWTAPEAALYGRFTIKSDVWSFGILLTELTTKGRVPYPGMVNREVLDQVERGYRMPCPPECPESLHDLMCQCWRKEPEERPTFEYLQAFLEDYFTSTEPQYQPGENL", "design": "KINOMEscan (DiscoverX) competition binding screen of 97 human kinases, percent of control at 10 uM", "experimental": "as §1"}, "[22]": {"biological_target": "VEGFR2 (Homo sapiens, UniProt P35968)", "design": "gene KDR; KINOMEscan (DiscoverX) competition binding screen of 97 human kinases, percent of control at 10 uM", "experimental": "as §1"}, "[23]": {"biological_target": "TIE2 (Homo sapiens, UniProt Q02763)", "sequence (Q02763 whole entry)": "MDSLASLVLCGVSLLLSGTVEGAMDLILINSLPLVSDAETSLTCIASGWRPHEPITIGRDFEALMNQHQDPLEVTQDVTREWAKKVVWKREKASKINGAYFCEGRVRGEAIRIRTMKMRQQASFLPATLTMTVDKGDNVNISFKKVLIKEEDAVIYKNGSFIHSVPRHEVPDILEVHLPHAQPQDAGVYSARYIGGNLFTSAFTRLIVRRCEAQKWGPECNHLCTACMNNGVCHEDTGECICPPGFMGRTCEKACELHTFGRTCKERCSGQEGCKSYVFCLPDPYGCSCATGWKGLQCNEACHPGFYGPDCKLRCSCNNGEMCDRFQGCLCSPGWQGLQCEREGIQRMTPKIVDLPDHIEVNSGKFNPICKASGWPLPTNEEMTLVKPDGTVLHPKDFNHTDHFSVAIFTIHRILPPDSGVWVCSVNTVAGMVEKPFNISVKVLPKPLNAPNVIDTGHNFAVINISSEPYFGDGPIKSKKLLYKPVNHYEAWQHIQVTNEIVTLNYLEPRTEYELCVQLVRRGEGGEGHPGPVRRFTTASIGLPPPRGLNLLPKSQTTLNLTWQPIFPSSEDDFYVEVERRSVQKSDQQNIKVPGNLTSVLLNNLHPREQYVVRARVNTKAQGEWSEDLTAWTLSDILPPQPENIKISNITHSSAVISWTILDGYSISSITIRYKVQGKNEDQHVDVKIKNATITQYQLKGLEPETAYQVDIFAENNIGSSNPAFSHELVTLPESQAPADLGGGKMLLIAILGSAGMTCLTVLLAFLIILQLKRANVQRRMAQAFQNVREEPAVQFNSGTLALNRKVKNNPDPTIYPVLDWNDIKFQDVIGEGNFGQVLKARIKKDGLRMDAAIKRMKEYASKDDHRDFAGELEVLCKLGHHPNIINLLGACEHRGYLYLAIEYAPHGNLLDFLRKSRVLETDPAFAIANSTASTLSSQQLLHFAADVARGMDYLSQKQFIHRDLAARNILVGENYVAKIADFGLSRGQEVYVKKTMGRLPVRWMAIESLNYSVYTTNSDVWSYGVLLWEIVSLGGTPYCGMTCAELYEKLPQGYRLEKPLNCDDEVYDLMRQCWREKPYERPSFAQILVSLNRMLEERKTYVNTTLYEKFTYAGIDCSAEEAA", "design": "gene TEK; KINOMEscan (DiscoverX) competition binding screen of 97 human kinases, percent of control at 10 uM", "experimental": "as §1"}, "[24]": {"conditions": "read-out: R428 %Ctrl @ 10000nM, binding competition"}, "[25]": {"conditions": "binding competition, % of control, read-out: RU-301 %Ctrl @ 10000nM"}}}
{"smiles": "Nc1nc(Nc2ccc3c(c2)CC[C@@H](N2CCCC2)CC3)nn1-c1cc2c(nn1)-c1ccccc1CCC2", "note": "[R428]", "values": [{"measurement": "percent of control binding at 10 µM", "setting": "[1]; [24]", "result": 18, "unit": "%"}, {"measurement": "percent of control binding at 10 µM", "setting": "[2]; [24]", "result": 100, "unit": "%"}, {"measurement": "percent of control binding at 10 µM", "setting": "[3]; [24]", "result": 100, "unit": "%"}, {"measurement": "percent of control binding at 10 µM", "setting": "[4]; [24]", "result": 60, "unit": "%"}, {"measurement": "percent of control binding at 10 µM", "setting": "[5]; [24]", "result": 70, "unit": "%"}, {"measurement": "percent of control binding at 10 µM", "setting": "[6]; [24]", "result": 71, "unit": "%"}, {"measurement": "percent of control binding at 10 µM", "setting": "[7]; [24]", "result": 100, "unit": "%"}, {"measurement": "percent of control binding at 10 µM", "setting": "[8]; [24]", "result": 83, "unit": "%"}, {"measurement": "percent of control binding at 10 µM", "setting": "[9]; [24]", "result": 14, "unit": "%"}, {"measurement": "percent of control binding at 10 µM", "setting": "[10]; [24]", "result": 96, "unit": "%"}, {"measurement": "percent of control binding at 10 µM", "setting": "[11]; [24]", "result": 0.05, "unit": "%"}, {"measurement": "percent of control binding at 10 µM", "setting": "[12]; [24]", "result": 3, "unit": "%"}, {"measurement": "percent of control binding at 10 µM", "setting": "[13]; [24]", "result": 0.2, "unit": "%"}, {"measurement": "percent of control binding at 10 µM", "setting": "[14]; [24]", "result": 0, "unit": "%"}, {"measurement": "percent of control binding at 10 µM", "setting": "[15]; [24]", "result": 74, "unit": "%"}, {"measurement": "percent of control binding at 10 µM", "setting": "[16]; [24]", "result": 69, "unit": "%"}, {"measurement": "percent of control binding at 10 µM", "setting": "[17]; [24]", "result": 1.4, "unit": "%"}, {"measurement": "percent of control binding at 10 µM", "setting": "[18]; [24]", "result": 34, "unit": "%"}, {"measurement": "percent of control binding at 10 µM", "setting": "[19]; [24]", "result": 2.1, "unit": "%"}, {"measurement": "percent of control binding at 10 µM", "setting": "[20]; [24]", "result": 0.65, "unit": "%"}, {"measurement": "percent of control binding at 10 µM", "setting": "[21]; [24]", "result": 14, "unit": "%"}, {"measurement": "percent of control binding at 10 µM", "setting": "[22]; [24]", "result": 1, "unit": "%"}, {"measurement": "percent of control binding at 10 µM", "setting": "[23]; [24]", "result": 0.45, "unit": "%"}]}
{"smiles": "Cc1cc(CSc2ccccc2C(=O)NCCNc2ccc(C(F)(F)F)cc2[N+](=O)[O-])on1", "note": "[RU-301]", "values": [{"measurement": "remaining binding at 10 µM", "setting": "[1]; [25]", "result": 76, "unit": "%"}, {"measurement": "remaining binding at 10 µM", "setting": "[2]; [25]", "result": 88, "unit": "%"}, {"measurement": "remaining binding at 10 µM", "setting": "[3]; [25]", "result": 100, "unit": "%"}, {"measurement": "remaining binding at 10 µM", "setting": "[4]; [25]", "result": 100, "unit": "%"}, {"measurement": "remaining binding at 10 µM", "setting": "[5]; [25]", "result": 94, "unit": "%"}, {"measurement": "remaining binding at 10 µM", "setting": "[6]; [25]", "result": 96, "unit": "%"}, {"measurement": "remaining binding at 10 µM", "setting": "[7]; [25]", "result": 100, "unit": "%"}, {"measurement": "remaining binding at 10 µM", "setting": "[8]; [25]", "result": 100, "unit": "%"}, {"measurement": "remaining binding at 10 µM", "setting": "[9]; [25]", "result": 89, "unit": "%"}, {"measurement": "remaining binding at 10 µM", "setting": "[10]; [25]", "result": 97, "unit": "%"}, {"measurement": "remaining binding at 10 µM", "setting": "[11]; [25]", "result": 85, "unit": "%"}, {"measurement": "remaining binding at 10 µM", "setting": "[12]; [25]", "result": 75, "unit": "%"}, {"measurement": "remaining binding at 10 µM", "setting": "[13]; [25]", "result": 71, "unit": "%"}, {"measurement": "remaining binding at 10 µM", "setting": "[14]; [25]", "result": 100, "unit": "%"}, {"measurement": "remaining binding at 10 µM", "setting": "[15]; [25]", "result": 97, "unit": "%"}, {"measurement": "remaining binding at 10 µM", "setting": "[16]; [25]", "result": 96, "unit": "%"}, {"measurement": "remaining binding at 10 µM", "setting": "[17]; [25]", "result": 99, "unit": "%"}, {"measurement": "remaining binding at 10 µM", "setting": "[18]; [25]", "result": 99, "unit": "%"}, {"measurement": "remaining binding at 10 µM", "setting": "[19]; [25]", "result": 74, "unit": "%"}, {"measurement": "remaining binding at 10 µM", "setting": "[20]; [25]", "result": 100, "unit": "%"}, {"measurement": "remaining binding at 10 µM", "setting": "[21]; [25]", "result": 96, "unit": "%"}, {"measurement": "remaining binding at 10 µM", "setting": "[22]; [25]", "result": 99, "unit": "%"}, {"measurement": "remaining binding at 10 µM", "setting": "[23]; [25]", "result": 100, "unit": "%"}]}
